Series [1] concerns Mouse muscle cells (C2C12). In words: Muscle cell atrophy induced by cisplatin: myotube differentiation by immunofluorescence. In kind it is cell-based. The note with it: 40 μM cisplatin, 2.5 and 5 μM, 48 hours.
Series [2] concerns RAW cells polarized from M0 to M1. Nature of the series: M1-type macrophage inhibition: cell morphology and intracellular/extracellular ROS levels. The class given is cell-based.
Series [3] deals with Mouse muscle cells (C2C12). Nature of the series: Cytotoxicity by DAPI nuclei count. To be noted: apigenin 2.5 and 5 μM, 96 hours. The class given is cell-based. As to the method:
After 96 hours of incubation, cell nuclei were stained with DAPI.

Series [4] concerns MHC, MyoG (myogenin) in C2C12. Nature of the series: Western blot of MHC and MyoG in cisplatin-treated cells. The class given is cell-based, mouse. To be noted: reduced by cisplatin treatment. As to the method:
Additionally, proteins were extracted from each experimental cell group, and western blot analysis was conducted to examine the expression level of MyoG (myogenin), which induces muscle generation.
A general note: A western blot detects proteins with antibodies after separation by electrophoresis.

Series [5] has as its system MHC, IGF-IR, p-AKT, p-Foxo3a, MuRF1 in C2C12. In words: Western blot of muscle generation and degradation proteins in CCM-treated cells. In kind it is cell-based, mouse.
Description: Meanwhile, to evaluate the effect of the apigenin-glycated albumin composite on the expression of genes related to muscle generation and degradation, proteins were extracted from the cells of each experimental group and analyzed via western blotting.
In series [6] the test system is Mouse muscle cells (C2C12). Nature of the series: Muscle atrophy induced by cancer cell-conditioned medium (CCM, CT26): myotube differentiation by immunofluorescence. To be noted: CCM-induced atrophied cells, 2.5 μM, 48 hours. In kind it is cell-based. As to the method: First, mouse muscle cells (C2C12) were cultured, and the culture medium was replaced with cancer cell-conditioned medium (CCM) from cultured CT26 (colon carcinoma) cells to induce muscle atrophy.
Mouse muscle cells (C2C12) were first cultured, and then their medium was replaced with cancer cell-conditioned medium (CCM) from cultured mouse colon carcinoma cells (CT26) to induce muscle atrophy. The cells were treated with either 2.5 μM of ursolic acid alone or ursolic acid-glycated albumin and incubated for 48 hours. Thereafter, fluorescence expression was confirmed to evaluate the level of myotube differentiation.
Mouse muscle cells (C2C12) were first cultured, and their medium was replaced with cancer cell-conditioned medium (CCM) from cultured mouse colon carcinoma cells (CT26) to induce muscle atrophy. The cells were treated with either 2.5 μM of soyasapogenol B alone or soyasapogenol B-glycated albumin and incubated for 48 hours. Thereafter, fluorescence expression was confirmed to evaluate the level of myotube differentiation.
Mouse muscle cells (C2C12) were first cultured, and their medium was replaced with cancer cell-conditioned medium (CCM) from cultured mouse colon carcinoma cells (CT26) to induce muscle atrophy. The cells were treated with either 2.5 μM of citrusinol alone or citrusinol-glycated albumin and incubated for 48 hours. Thereafter, fluorescence expression was confirmed to evaluate the level of myotube differentiation.

On to `O=c1cc(-c2ccc(O)cc2)oc2cc(O)cc(O)c12` [apigenin], for which the “atrophy caused by cisplatin” value in series [1] is reported as “inhibited”. Besides, the RAW cell morphology result in series [2] (RAW cells polarized from M0 to M1, FIG. 7a) is on record as “maintained in the M0 type”. In addition, in series [2] (RAW cells polarized from M0 to M1, FIG. 7b), the “ROS levels (intracellular/extracellular)” value is listed as “ROS reduction was observed”. Moreover, in series [3], the “cytotoxicity (number of DAPI-stained nuclei)” value is “neither the apigenin alone nor the apigenin-glycated albumin composite exhibited cytotoxicity”. Besides, in series [4], the MHC expression entry is “increased” and the MyoG expression result is on record as “increased”. Also, in series [5] (CCM treatment), the “expression of IGF-IR” value is “increased expression”, the “expression of MHC” value was “increased expression”, the “expression of p-AKT” value is reported as “increased expression” and the “expression of p-Foxo3a” value is reported as “increased expression”. The MuRF1 expression entry in series [5] (elevated by CCM treatment) is recorded as “reduced”.
For `CC1(C)C=Cc2c(cc(O)c3c(=O)c(O)c(-c4ccc(O)cc4)oc23)O1` [citrusinol], the “MHC expression (immunofluorescence)” value in series [6] was “increased”.
On the same count and under the same terms, then `CC1(C)C[C@@H](O)[C@]2(C)CC[C@]3(C)C(=CC[C@@H]4[C@@]5(C)CC[C@H](O)[C@](C)(CO)[C@@H]5CC[C@]43C)[C@@H]2C1` [soyasapogenol B], with “increased”; and `C[C@H]1[C@H](C)CC[C@]2(C(=O)O)CC[C@]3(C)C(=CC[C@@H]4[C@@]5(C)CC[C@H](O)C(C)(C)[C@@H]5CC[C@]43C)[C@H]12` [ursolic acid], with “increased”.

For the origin of these results see patent publication US20250367305A1, “ALBUMIN NANOCOMPOSITE COMPRISING PHYTOCHEMICAL AND COMPOSITION FOR IMPROVING MUSCLE DISEASE CONTAINING SAME” (SEOUL NATIONAL UNIVERSITY R&DB FOUNDATION, priority 2023, published 2025).
